Assay results from ChEMBL document CHEMBL1201862, “PubChem BioAssay data set” (2004).
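Compound exposure: 48 hours, 5 concentrations, 96-well plates. The concentration for 50% growth inhibition is given as GI50.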 Activity calls are given as the source filed them. No stated cut-off is given here; in the data, active = GI50 up to about 1.1 µM and inactive = higher.

Tests used:
Assay in all cases: growth of human tumour cells (NCI), 48 h
EKVX = system: EKVX
RPMI-8226 = system: RPMI-8226
HL-60 = system: HL-60
RXF 393 = system: RXF 393
COLO 205 = system: COLO 205
SNB-78 = system: SNB-78
OVCAR-3 = system: OVCAR-3
M19-MEL = system: M19-MEL
SK-MEL-28 = system: SK-MEL-28
SF-539 = system: SF-539
SF-268 = system: SF-268
CAKI-1 = system: CAKI-1
NCI-H23 = system: NCI-H23
UACC-257 = system: UACC-257
786-0 = system: 786-0
SK-MEL-2 = system: SK-MEL-2
NCI-H522 = system: NCI-H522
MDA-MB-435 = system: MDA-MB-435
T47D = system: T47D
PC-3 = system: PC-3

Compound | GI50 (EKVX) | GI50 (RPMI-8226) | GI50 (HL-60) | GI50 (RXF 393) | GI50 (COLO 205) | GI50 (SNB-78) | GI50 (OVCAR-3) | GI50 (M19-MEL) | GI50 (SK-MEL-28) | GI50 (SF-539) | GI50 (SF-268) | GI50 (CAKI-1) | GI50 (NCI-H23) | GI50 (UACC-257) | GI50 (786-0) | GI50 (SK-MEL-2) | GI50 (NCI-H522) | GI50 (MDA-MB-435) | GI50 (T47D) | GI50 (PC-3)
COC(=O)C1=C(c2ccc3c(c2)OCO3)O[C@H](c2cc(OC)c(OC)c(OC)c2)[C@H]1COC(C)=O | 38.3 µM (inactive) | 11.3 µM (inactive) | 0.49 µM (active) | 1.57 µM (inactive) | 0.984 µM (active) | 8.49 µM (inactive) | 1.19 µM (inactive) | 2.45 µM (inactive) | 12.2 µM (inactive) | 1.99 µM (inactive) | 7.5 µM (inactive) | 1.95 µM (inactive) | 2.25 µM (inactive) | 4.4 µM (inactive) | 4.12 µM (inactive) | 12.6 µM (inactive) |  |  |  | 
CC(=O)C1CC=C(C)CC1 (stereo not given) | > 100 µM (inactive) | > 100 µM (inactive) | > 100 µM (inactive) | > 100 µM (inactive) | > 100 µM (inactive) | > 100 µM (inactive) | > 100 µM (inactive) | > 100 µM (inactive) | > 100 µM (inactive) | > 100 µM (inactive) | > 100 µM (inactive) | > 100 µM (inactive) | > 100 µM (inactive) | > 100 µM (inactive) | > 100 µM (inactive) | > 100 µM (inactive) | > 100 µM (inactive) |  |  | 
O=C1c2ccc3c4ccccc4n(-c4ccccc4)c3c2C(=O)N1c1ccc(Cl)cc1 | > 100 µM (inactive) |  | > 100 µM (inactive) | > 100 µM (inactive) | > 100 µM (inactive) | > 100 µM (inactive) | > 100 µM (inactive) | > 100 µM (inactive) |  | > 100 µM (inactive) | > 100 µM (inactive) | > 100 µM (inactive) | 8.95 µM (inactive) | > 100 µM (inactive) | > 100 µM (inactive) | > 100 µM (inactive) | > 100 µM (inactive) |  |  | 
CCOC1(COP(=O)(OCc2ccccc2)OCc2ccccc2)COC(COP(=O)(OCc2ccccc2)OCc2ccccc2)(OCC)CO1 (stereo not given) | 2.32 µM (inactive) | 74.6 µM (inactive) | 30.8 µM (inactive) | 4.33 µM (inactive) | > 100 µM (inactive) | > 100 µM (inactive) | > 100 µM (inactive) | 15.5 µM (inactive) | > 100 µM (inactive) | > 100 µM (inactive) | > 100 µM (inactive) | > 100 µM (inactive) | > 100 µM (inactive) | > 100 µM (inactive) | > 100 µM (inactive) | > 100 µM (inactive) | > 100 µM (inactive) |  |  | 
CCOC(=O)C1=C(C)N(c2ccccc2)C2=C(C(=O)N(c3ccccc3)C2c2ccccc2)C1c1ccccc1 (stereo not given) | > 100 µM (inactive) | > 100 µM (inactive) | > 100 µM (inactive) | > 100 µM (inactive) | > 100 µM (inactive) | > 100 µM (inactive) | > 100 µM (inactive) | > 100 µM (inactive) | > 100 µM (inactive) | > 100 µM (inactive) | > 100 µM (inactive) | > 100 µM (inactive) | > 100 µM (inactive) | > 100 µM (inactive) | > 100 µM (inactive) | > 100 µM (inactive) | > 100 µM (inactive) |  |  | 
O=C(Nc1ccc(Nc2ccc(NC(=O)c3ccccc3)c3c2C(=O)c2ccccc2C3=O)c2c1C(=O)c1ccccc1C2=O)c1ccccc1 | > 100 µM (inactive) | > 100 µM (inactive) | > 100 µM (inactive) | > 100 µM (inactive) | > 100 µM (inactive) | > 100 µM (inactive) | > 100 µM (inactive) | > 100 µM (inactive) | > 100 µM (inactive) | > 100 µM (inactive) | > 100 µM (inactive) | > 100 µM (inactive) |  | > 100 µM (inactive) | 52.5 µM (inactive) | > 100 µM (inactive) | > 100 µM (inactive) |  |  | 
COC1C(CO)OC(n2c3c(Cl)cccc3c3c4c(c5c6cccc(Cl)c6[nH]c5c32)C(=O)NC4=O)C(O)C1O (stereo not given) | 0.463 µM (active) | 0.242 µM (active) | 0.22 µM (active) | 0.225 µM (active) | 0.351 µM (active) | 0.631 µM (active) | 0.292 µM (active) | 0.274 µM (active) | 0.337 µM (active) | 0.195 µM (active) | 0.149 µM (active) | 0.169 µM (active) | 0.153 µM (active) | 0.219 µM (active) | 0.133 µM (active) | 0.386 µM (active) | 0.21 µM (active) | 0.306 µM (active) | 0.154 µM (active) | 0.227 µM (active)
Cc1cc(C(=C2C=CC(=[N+](C)C)C=C2)c2ccc([N+](C)(C)C)cc2)ccc1N(C)C | 4.32 µM (inactive) | 2.04 µM (inactive) | 2.3 µM (inactive) | 5.65 µM (inactive) | 10.1 µM (inactive) | 10.7 µM (inactive) | 12 µM (inactive) | 5.52 µM (inactive) | 11.3 µM (inactive) | 10.8 µM (inactive) | 11.6 µM (inactive) | 18.2 µM (inactive) | 10.1 µM (inactive) | 12.1 µM (inactive) | 21.6 µM (inactive) | 15.2 µM (inactive) | 15.9 µM (inactive) |  |  | 
